# Experimental data as given in PMC5483439, “The Effect of Pungent and Tingling Compounds from Piper nigrum L. on Background K^+ Currents” (Frontiers in Pharmacology, 2017).
# Target: T1, hKCNK3 (Homo sapiens, UniProt O14649)
# T1 construct: expressed in transfected cells; host or cells: Xenopus laevis oocytes injected with cRNA (plasmid pIRES-CD8, gift of Dr. Fabrice Duprat)
# Assay: Two-electrode voltage clamp on Xenopus laevis oocytes expressing hKCNK3
# Type: cell-based
# Conditions: not given
# From the text: (§1) Human KCNK3 (TASK-1, K2P3.1) cloned into the expression vector pIRES-CD8 was a gift from Dr. Fabrice Duprat (Institut National de la Santé et de la Recherche Médicale, Antipolis, France). Human KCNK18 (hTRESK, K2P18.1), cloned into the plasmid pEXO, was a gift from Dr. P. Enyedi (Semmelweis University, Budapest, Hungary). These plasmids were linearized with the restriction enzymes BamHI and XbaI, respectively, and then used as templates for in vitro transcription. Human KCNK9 (hTASK-3, K2P9.1) cloned into the expression vector pCR4-TOPO, was purchased from Imagenes (Berlin, Germany). The plasmid was linearized with the restriction enzyme SspI, to generate a linear cDNA template for in vitro transcription. mKCNK3 was isolated from mouse heart by standard procedures and inserted into pSGEM. mKCNK9 and mKCNK18 were kindly provided by Dr. D. Bayliss (University of Virginia, Charlottesville, VA, United States) and Prof. Dr. P. Enyedi (Semmelweis University, Budapest, Hungary). Both channels were subcloned into pSGEM. The pSGEM plasmids were subsequently linearized with the restriction enzyme PacI. The capped RNAs were synthesized in the presence of the capping analog m7G(5′)ppp(5′)G using the AmpliCap-T7 Message Maker kit (Epicentre, Madison, WI, United States). The cRNA was dissolved in nuclease-free water to obtain a final concentration of 100 ng/μL.
# (§2) The expression in Xenopus laevis oocytes was essentially performed as previously described ([Beltrán et al., 2013]). Briefly, mature female Xenopus laevis frogs were anesthetized with 0.15% MS-222, and surgery was performed according to standard methods, where the extracted ovarian lobes were placed into Ca^2+-free Barth solution containing collagenase type II (Worthington Biochemical Corporation, Lakewood, NJ, United States) and kept for 90 min on a shaker at 40 rpm (room temperature). Healthy stage V and VI oocytes were selected for injection with cRNA coding for the proteins of interest. Thirty nanoliters of cRNA (100 ng/μL) of each channel were injected using a Microinjector Micro 4 ^TM (World Precision Instruments). After injection, the oocytes were kept in ND96 (96 mM NaCl; 2 mM KCl; 1.8 mM CaCl2; 1 mM MgCl2; 2.5 mM Sodium pyruvate; 10 mM, HEPES [4-(2-hydroxyethyl)-1-piperazineethanesulfonic acid), pH 7.4]. The measurements were performed 24 to 72 h after injection. The oocytes were placed in a 100 μL chamber that was perfused with frog Ringer’s solution (115 mM NaCl; 2.5 mM KCl; 1.8 mM CaCl2, and 10 mM HEPES, pH 7.2). The substances were dissolved in this solution before being manually applied to the oocytes using an automatic pipette (Research pro, Eppendorf, Germany). The application time was usually three ramps (approximately 10 s). For recording, a Turbo Tec-03x (npi electronic GmbH, Tamm, Germany) amplifier was used, with an acquisition rate of 1000 Hz and a low pass filter of 20 Hz. Borosilicate glass capillaries were pulled with a Kopf vertical pipette puller. The pulled glass capillaries were filled with 3 M KCl.
# A ramp series protocol was used to evaluate the activity of KCNK channels as previously described ([Beltrán et al., 2013]). Briefly, voltage ramps from –100 mV to + 50 mV ([…]) followed by a constant of +50 mV (150 ms) were applied at a time interval of 2 s. […] This value was then normalized to the average obtained from three ramps prior to the application. In most cases, the currents elicited by this voltage-clamp ramp series protocol were more than ten times larger than the background currents observed in uninjected oocytes, while also presenting the described outward rectification under physiological concentrations of intracellular and extracellular K^+ ([Goldstein et al., 2001]; [Enyedi and Czirják, 2010]). Due to these characteristics, no leakage subtraction was considered necessary. Oocytes not fulfilling these characteristics were not considered for data analysis. […]
# T1 sequence (O14649 whole entry): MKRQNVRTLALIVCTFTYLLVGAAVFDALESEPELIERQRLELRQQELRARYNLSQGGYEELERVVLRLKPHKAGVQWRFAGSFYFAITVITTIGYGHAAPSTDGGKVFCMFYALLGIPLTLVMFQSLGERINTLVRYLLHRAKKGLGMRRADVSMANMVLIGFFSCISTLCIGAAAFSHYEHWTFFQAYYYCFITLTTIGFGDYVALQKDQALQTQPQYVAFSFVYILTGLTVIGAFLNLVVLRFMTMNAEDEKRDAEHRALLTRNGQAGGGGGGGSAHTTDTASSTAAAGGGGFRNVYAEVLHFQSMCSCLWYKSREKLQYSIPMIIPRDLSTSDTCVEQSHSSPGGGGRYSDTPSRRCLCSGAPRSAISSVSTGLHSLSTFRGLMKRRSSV
row,Molecule,IC50 [µM]
1,"CC(C)CNC(=O)/C=C/C=C/CCCCCC/C=C/c1ccc2c(c1)OCO2 [4c, guineensine]",90.9 ± 12.7

# Same assay, conditions: 1 mM, Xenopus oocytes
row,Molecule,effect on basal activity of hKCNK3
1,"1-(octadeca-2E,4E,13/12Z-trienoyl)-pyrrolidine [5b/6b]",most pronounced effect
2,"O=C(/C=C/C=C/c1ccc2c(c1)OCO2)N1CCCC1 [1b, piperyline]",decrease in their basal activity
3,"O=C(/C=C/C=C/CC/C=C/c1ccc2c(c1)OCO2)N1CCCC1 [3b, 1-[1-oxo-9(3,4-methylenedioxyphenyl)-2E,4E,8E-nonatrienyl]-pyrrolidine]",most pronounced effect
4,"O=C(/C=C/C=C/CCCCCC/C=C/c1ccc2c(c1)OCO2)N1CCCC1 [4b, brachyamide A]",most pronounced effect

# Same assay, conditions: Xenopus oocytes, current at +50 mV normalized to pre-application; read-out: IC50 on hKCNK3
row,Molecule,IC50 [µM]
1,"1-(octadeca-2E,4E,13/12Z-trienoyl)-pyrrolidine [5b/6b]",19 ± 2.1
2,"O=C(/C=C/C=C/c1ccc2c(c1)OCO2)N1CCCC1 [1b, piperyline]",180 ± 39
3,"O=C(/C=C/C=C/CC/C=C/c1ccc2c(c1)OCO2)N1CCCCC1 [3a, dehydropipernonaline]",44 ± 6.7
4,"O=C(/C=C/C=C/CC/C=C/c1ccc2c(c1)OCO2)N1CCCC1 [3b, 1-[1-oxo-9(3,4-methylenedioxyphenyl)-2E,4E,8E-nonatrienyl]-pyrrolidine]",49.6 ± 8.5
5,"O=C(/C=C/C=C/CCCCCC/C=C/c1ccc2c(c1)OCO2)N1CCCC1 [4b, brachyamide A]",32 ± 11
6,"(2E,4E,13/12Z)-N-isobutyl-octadeca-2,4,12/13-trienamide [5c/6c]",70 ± 32.8

# Same assay, conditions: hKCNK3 in Xenopus oocytes
row,Molecule,% of basal activity after saturating concentrations [%]
1,"1-(octadeca-2E,4E,13/12Z-trienoyl)-pyrrolidine [5b/6b]",27 ± 3
2,"O=C(/C=C/C=C/c1ccc2c(c1)OCO2)N1CCCC1 [1b, piperyline]",55 ± 5
3,"O=C(/C=C/C=C/CC/C=C/c1ccc2c(c1)OCO2)N1CCCCC1 [3a, dehydropipernonaline]",39 ± 1
4,"O=C(/C=C/C=C/CC/C=C/c1ccc2c(c1)OCO2)N1CCCC1 [3b, 1-[1-oxo-9(3,4-methylenedioxyphenyl)-2E,4E,8E-nonatrienyl]-pyrrolidine]",35 ± 3
5,"O=C(/C=C/C=C/CCCCCC/C=C/c1ccc2c(c1)OCO2)N1CCCC1 [4b, brachyamide A]",51 ± 5
6,"CC(C)CNC(=O)/C=C/C=C/CCCCCC/C=C/c1ccc2c(c1)OCO2 [4c, guineensine]",48 ± 2.8
7,"(2E,4E,13/12Z)-N-isobutyl-octadeca-2,4,12/13-trienamide [5c/6c]",57 ± 7

# Tested on: background current of mouse trigeminal neurons
# Assay: Whole-cell patch clamp on cultured mouse trigeminal neurons
# Type: cell-based
# Conditions: 100 μM XE-991, Na+/Ca2+-free solution
# Protocol: Trigeminal ganglia neurons were isolated from Swiss CD-1 mice (Charles River Laboratories, Sulzfeld, Germany). All experiments involving animals were carried out in accordance with the European Union Community Council’s guidelines and approved by the competent state office of the Federal Land of Northrhine Westphalia (file number 87-51.04.2010.A180). At postnatal day 2–5, the mice were sacrificed by decapitation. The brain was removed, and both trigeminal ganglia were excised. The ganglia were washed in PBS+/+ (Invitrogen, Karlsruhe, Germany) and collected in Leibovitz Medium (L15, Invitrogen) on ice. The ganglia were transferred to Dulbecco’s modified essential medium (DMEM) containing 0.025% collagenase (type IA, Sigma–Aldrich). The minced ganglia were incubated for 45 min in a humidified atmosphere (37°C, 95% humidity, 6% CO2) before trituration. The cell suspension was centrifuged at 1000 rpm for 4 min at room temperature and the pellet was resuspended in F-12 medium (Invitrogen; 31331-D-MEM/F-12, GlutaMax^TM) supplemented with 10% fetal bovine serum (FBS^TM; Invitrogen), 200 U/mL penicillin and 200 U/mL streptomycin. The cell suspension (50 μL) was then plated on poly L-lysine (0.01%) coated glass coverslips (30 mm, Sarstedt, Nümbrecht, Germany), placed in cell culture dishes (35 mm) and kept in a humidified atmosphere (37°C, 95% humidity, 6% CO2) for 1 h. Subsequently, F-12 medium (2 mL) supplemented with FBS (10%), 200 U/mL penicillin and 200 U/mL streptomycin was added to each dish. The cells were kept in an incubator (37°C, 95% humidity, 6% CO2) until use.
# The recordings were performed using the whole-cell configuration of the patch-clamp technique. The cells were maintained in an extracellular recording solution containing 140 mM NaCl, 5 mM KCl, 2 mM MgCl2, 2 mM CaCl2, 10 mM HEPES and 10 mM glucose, pH 7.4. The Ca^2+ and Na^+- free extracellular solution contained: 140 mM NMDG-Cl, 5 mM KCl, 2 mM MgCl2, 5 mM EGTA, 10 mM HEPES, pH 7.4. The patch electrodes were pulled from borosilicate glass (1.2 mm OD × 1.17 mm ID; Harvard apparatus, Edenbridge, Kent, United Kingdom) and fire polished to 2.5–4 MΩ tip resistance using a horizontal pipette puller (Zeitz Instruments, Munich, Germany) to obtain a patch of approximately 1–2 μm diameter. The pipette solution contained 140 mM KCl, 1 mM MgCl2, and 10 mM HEPES, pH 7.4. All recordings were performed at room temperature with an EPC7 amplifier (List-Medical Electronic, Darmstadt, Germany). The capacity and serial resistance were adjusted manually. The substances were applied via a custom-made manifold superfusion device. […] The data were acquired using Pulse software (HEKA, Lambrecht, Germany) and analyzed with PulseFit (HEKA, Lambrecht, Germany). Unless otherwise stated, the data are expressed as the mean ± SEM. […]
row,Molecule,effect of pre-incubation on background current
1,"O=C1c2ccccc2C(Cc2ccncc2)(Cc2ccncc2)c2ccccc21 [XE-991, reference compound]",marked decrease

# Target: T2, hKCNK9 (Homo sapiens, UniProt Q9NPC2)
# T2 construct: host or cells: Xenopus laevis oocytes injected with cRNA (plasmid pCR4-TOPO)
# T2 sequence (Q9NPC2 whole entry): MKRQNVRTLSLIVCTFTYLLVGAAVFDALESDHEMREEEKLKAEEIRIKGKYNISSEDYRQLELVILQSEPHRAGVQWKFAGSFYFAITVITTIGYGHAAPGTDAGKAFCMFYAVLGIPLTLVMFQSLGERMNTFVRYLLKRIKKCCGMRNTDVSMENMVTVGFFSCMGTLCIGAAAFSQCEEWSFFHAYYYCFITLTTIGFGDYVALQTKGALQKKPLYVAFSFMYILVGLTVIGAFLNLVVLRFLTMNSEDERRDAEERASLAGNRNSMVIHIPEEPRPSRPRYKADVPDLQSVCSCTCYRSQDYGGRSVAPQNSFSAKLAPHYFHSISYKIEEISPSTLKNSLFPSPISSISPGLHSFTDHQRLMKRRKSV
# Assay: Two-electrode voltage clamp on Xenopus laevis oocytes expressing hKCNK9
# Type: cell-based
# Conditions: 1 mM
# From the text: as §1
# as §2, with “For recording, a Turbo Tec-03x (npi electronic GmbH, Tamm, Germany) amplifier was used, with an acquisition rate of 1000 Hz and a low pass filter of 20 Hz. Borosilicate glass capillaries were pulled with a Kopf vertical pipette puller. The pulled glass capillaries were filled with 3 M KCl.” left out
row,Molecule,effect on basal activity of hKCNK9
1,"1-(octadeca-2E,4E,13/12Z-trienoyl)-pyrrolidine [5b/6b]",inhibited
2,"O=C(/C=C/C=C/c1ccc2c(c1)OCO2)N1CCCC1 [1b, piperyline]",decrease in their basal activity

# Same assay, conditions: N = 3–6
row,Molecule,IC50 [µM]
1,"1-(octadeca-2E,4E,13/12Z-trienoyl)-pyrrolidine [5b/6b]",236 ± 56

# Tested on: tongue surface
# Assay: not given
# Design: method as in Dawid et al., 2012
# Conditions: human, filter paper on tongue; ref Dawid et al., 2012; cited from earlier work
Molecule,pungent threshold concentration [nmol/cm^2],tingling threshold concentration [nmol/cm^2]
"O=C(/C=C/C=C/c1ccc2c(c1)OCO2)N1CCCC1 [1b, piperyline]",5.1,–
"O=C(/C=C/C=C/C=C/c1ccc2c(c1)OCO2)N1CCCCC1 [2a, piperettine]",5.2,–
"O=C(/C=C/C=C/CC/C=C/c1ccc2c(c1)OCO2)N1CCCCC1 [3a, dehydropipernonaline]",152.1,–
"CC(C)CNC(=O)/C=C/C=C/CCCCCC/C=C/c1ccc2c(c1)OCO2 [4c, guineensine]",810.1,–
"CCCC/C=C\CCCCCCC/C=C/C=C/C(=O)NCC(C)C [5c, (2E,4E,13Z)-N-isobutyl-octadeca-2,4,13-trienamide]",540.5,2162.1
"CCCCC/C=C\CCCCCC/C=C/C=C/C(=O)NCC(C)C [6c, (2E,4E,12Z)-N-isobutyl-octadeca-2,4,12-trienamide]",540.5,2162.1
"CCCCCCCCCCCCC/C=C/C=C/C(=O)NCC(C)C [7c, (2E,4E)-N-isobutyl-octadeca-2,4-dienamide]",763.0,–
"CCCC/C=C\CCCCCCCCC/C=C/C=C/C(=O)NCC(C)C [8c, (2E,4E,15Z)-N-isobutyl-eicosa-2,4,15-trienamide]",741.2,1482.3
"CCCCC/C=C\CCCCCCCC/C=C/C=C/C(=O)NCC(C)C [9c, (2E,4E,14Z)-N-isobutyl-eicosa-2,4,14-trienamide]",741.2,1482.3

# Same assay, conditions: human; ref Dawid et al., 2012; cited from earlier work
row,Molecule,threshold for oral pungency [μmol/cm^2]
1,"O=C(/C=C/C=C/c1ccc2c(c1)OCO2)N1CCCC1 [1b, piperyline]",0.005

# Target: T3, hKCNK18 (Homo sapiens, UniProt Q7Z418)
# T3 construct: expressed in transfected cells; host or cells: Xenopus laevis oocytes injected with cRNA (plasmid pEXO, gift of Dr. P. Enyedi)
# T3 sequence (Q7Z418 1-384): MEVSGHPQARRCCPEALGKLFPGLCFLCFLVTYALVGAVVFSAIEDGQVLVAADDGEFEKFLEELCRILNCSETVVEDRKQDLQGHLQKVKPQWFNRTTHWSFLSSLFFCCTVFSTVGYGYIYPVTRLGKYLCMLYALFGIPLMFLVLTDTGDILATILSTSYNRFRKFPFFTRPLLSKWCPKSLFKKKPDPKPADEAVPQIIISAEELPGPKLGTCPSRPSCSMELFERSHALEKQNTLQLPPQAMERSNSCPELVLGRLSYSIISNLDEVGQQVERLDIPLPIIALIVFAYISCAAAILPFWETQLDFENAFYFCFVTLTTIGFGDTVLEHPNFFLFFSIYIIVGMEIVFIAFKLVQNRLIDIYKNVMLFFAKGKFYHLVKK
# Assay: Two-electrode voltage clamp on Xenopus laevis oocytes expressing hKCNK18
# Type: cell-based
# Conditions: 1 mM
# From the text: as §1
# The expression in Xenopus laevis oocytes was essentially performed as previously described ([Beltrán et al., 2013]). Briefly, mature female Xenopus laevis frogs were anesthetized with 0.15% MS-222, and surgery was performed according to standard methods, where the extracted ovarian lobes were placed into Ca^2+-free Barth solution containing collagenase type II (Worthington Biochemical Corporation, Lakewood, NJ, United States) and kept for 90 min on a shaker at 40 rpm (room temperature). Healthy stage V and VI oocytes were selected for injection with cRNA coding for the proteins of interest. Thirty nanoliters of cRNA (100 ng/μL) of each channel were injected using a Microinjector Micro 4 ^TM (World Precision Instruments). […]
row,Molecule,effect on basal activity of hKCNK18
1,"O=C(/C=C/C=C/c1ccc2c(c1)OCO2)N1CCCC1 [1b, piperyline]",decrease in their basal activity

# Same assay, conditions: N = 3–6
row,Molecule,IC50 [µM]
1,"O=C(/C=C/C=C/c1ccc2c(c1)OCO2)N1CCCC1 [1b, piperyline]",252 ± 55
